Source: US5910435A, “Method of folding proteins with synthetic dithiol catalysts” (Wisconsin Alumni Research Foundation, priority 1996, dated 1999)

Tests used:
[1] = system: pdilΔ Saccharomyces cerevisiae; test: Rescue of PDI-deficient yeast on 5-FOA plates; assay type: cell-based; details: for survival of colonies of PDI-deficient yeast after selection against the PDI plasmid: minimal medium plates containing 5-FOA, BMC at 10 mM, DTT by the same procedure
Experimental: The ability of a synthetic diol protein catalyst to catalyze protein folding in vivo was tested by its ability to replace the function of PDI in a eukaryotic cell. The cells used for this procedure were pdilΔ Saccharomyces cerevisiae, which have a deletion in their PDI1 gene rendering the expressed enzyme dysfunctional. The PDI1 gene is an essential gene for survival of S. cerevisiae. To enable these cells to live, the cells contain a plasmid that directs expression of S. cerevisiae PDI. This plasmid also directs the expression of the […] gene product. These cells were streaked onto plates of minimal medium containing 5-fluoroorotic acid (5-FOA) which makes the URA3 gene product toxic to S. cerevisiae. Accordingly, this selects against presence of the plasmid and surviving cells will have neither the plasmid nor PDI.
This test was run with plates containing 5-FOA which also contained 0 or 10 mM BMC. […] No colonies survived on the plate without BMC.
Cells from the colonies rescued with BMC were then plated onto rich medium without BMC.
This same procedure was repeated with the disulfide bond reducing agent dithiothrietol (DTT). DTT is a low molecular weight dithiol with a higher pKa and a lower E°' than BMC.

[2] = cited from earlier work
scrambled ribonuclease A = test: In vitro unscrambling of non-native disulfide bonds (regain of ribonucleolytic activity); assay type: biochemical; details: 0, 20 or 200 μM; 1 mM reduced and 0.2 mM oxidized glutathione, pH 7.6, 30° C.; FIG. 5
Experimental: Disulfide bonds form readily in an oxidizing environment. These disulfide bonds may not, however, be the ones that exist in the native, active conformation of a protein. The desirable property in a synthetic protein foldase is the ability to catalyze the unscrambling of non-native disulfide bonds. The ability of BMC to catalyze the unscrambling of non-native disulfide bonds in vitro was assayed by a method similar to that reported previously by our group and others. Laboissiere et al, Protein Express. Purif. 6:700-706 (1995).
This assay is based on the disulfide bonds in ribonuclease A, a well-characterized enzyme. In its native, enzymatically active conformation, ribonuclease A has eight cysteine residues which participate in four specific disulfide bonds. […]
In the assay, BMC was tested for its ability to catalyze the regain of enzymatic activity in scrambled ribonuclease A. This regain in activity can only occur by the isomerization (or unscrambling) of the non-native disulfide bonds. […] In this test, the aliquot was added to 500 μL of 100 mM MES-HCl buffer, pH 6.0, containing 100 mM NaCl and 10 mM poly(C) RNA, which is a substrate for ribonuclease A. Ribonucleolytic activity was monitored by following the change in absorbance at 238 nm which accompanies the cleavage of poly(C) by enzymatically active ribonuclease A.

PDI deficient yeast = test: Complementation of PDI-deficient yeast with thioredoxin and its active-site mutants; assay type: cell-based
From the text: Because the proper folding of proteins is of significant scientific and commercial interest, systems have been designed to help to study protein folding. One such system is based on a yeast cells which lack a nuclear gene for the PDI enzyme, and are therefore incapable of catalyzing the formation of the proper disulfide bonds required for biological activity of proteins. Such yeast cells can be grown so long as they harbor a plasmid that produces PDI, but the cells promptly expire when the plasmid PDI is removed. The ability of mutant, altered, or engineered forms of PDI to rescue the PDI-deficient yeast cultures from death is a test of the suitability of such altered isoforms to properly fold proteins. Investigation into the function of PDI, and its use in the unscrambling of non-native disulfide bonds, is described by Laboissiere et al., J. Biol. Chem. 270:47:28006-28009 (1995). Based on this test system, it has been possible to determine that the motif for PDI activity consists of a particular amino acid domain. This domain is shared in common with the reducing bacterial enzyme thioredoxin. The domain has the consensus sequence Cys-X-X-Cys (SEQ ID NO: 1 or C-X-X-C, where X is an amino acid, Edman, Nature 317:267-270 (1985).
That study was conducted using mutant PDI deficient yeast. […]

Compound	survival of colonies of PDI-deficient yeast after selection against the PDI plasmid [1]	pKa relative to BMC [2]	time until surviving colonies appeared ([1]; 5-FOA plate with 10 mM BMC) [days]	catalysis of the regain of biological activity of a protein with scrambled disulfide bonds (scrambled ribonuclease A)	total yield of active protein, in the presence versus in the absence of the catalyst (scrambled ribonuclease A)	complementation (rescue) of PDI deficient yeast (PDI deficient yeast)
O[C@@H](CS)[C@@H](O)CS (relative stereo) [DTT, dithiothrietol, reference compound]	no yeast colonies could be rescued	higher				
O=C(CS)NC1CCCCC1NC(=O)CS (stereo not shown) [BMC, N,N'-bis(2-mercaptoacetyl)-1,2-diaminocyclohexane]	Surviving colonies appeared		5	significant catalysis	significantly greater	
thioredoxin: 12 kilodalton protein from E. coli, prokaryotic functional homolog of PDI, active site Cys-Gly-Pro-Cys						failed
